# Where two headings read alike, the source gives them in different places. Starred links: 1 amine or outer side, 2 acyl side, 3 side chain; linkers in the order of their positions; H or OH if unused. Non-standard residues stand in square brackets, D forms with d. Residues, ends and D or L forms follow the SMILES beside them. Groups on a side chain read outwards from the residue. No end group written: not given here. *: point of attachment. C18 diacid = O=C(O)CCCCCCCCCCCCCCCCC(=O)*; γGlu = O=C(O)[C@H](CCC(=O)[*:2])N[*:1]; Palmitoyl = CCCCCCCCCCCCCCCC(=O)*; AEEA = NCCOCCOCC(=O)O; Aib = CC(C)(N)C(=O)O
# T1: human CRF2α receptor (Homo sapiens, UniProt Q13324)
# T1 construct: expressed in transfected cells; host or cells: TeloHEAC
# T1 sequence (Q13324 1-411): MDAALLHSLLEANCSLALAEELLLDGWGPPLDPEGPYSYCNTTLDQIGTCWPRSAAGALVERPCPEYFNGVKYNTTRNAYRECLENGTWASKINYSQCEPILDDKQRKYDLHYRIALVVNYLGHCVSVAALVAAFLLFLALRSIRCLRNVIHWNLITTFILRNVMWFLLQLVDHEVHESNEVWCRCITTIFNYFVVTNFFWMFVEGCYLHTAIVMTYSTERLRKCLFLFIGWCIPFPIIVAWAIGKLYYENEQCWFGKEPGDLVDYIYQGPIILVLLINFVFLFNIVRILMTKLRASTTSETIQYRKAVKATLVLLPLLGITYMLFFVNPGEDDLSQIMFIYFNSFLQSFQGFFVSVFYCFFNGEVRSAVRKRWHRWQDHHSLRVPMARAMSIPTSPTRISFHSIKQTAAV
# Tests used:
# [1] = molecular target: T1, human CRF2α receptor; experiment: cAMP agonism at human CRF2 α receptor in TeloHEAC cells (Example 7); assay type: cell-based; details: cAMP HTRF, TeloHEAC cells stably expressing human CRF2 α
# Summary of the method: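 Percent activation was referenced to 1000 nM UCN2 (100%), and EC50 values taken as concentrations giving half of maximal response. The read-out was a homogeneous time-resolved fluorescence cAMP kit, fluorescence ratio 665/620 nm. Thawed cells (2000/well) saw compound for 30 min at RT in buffer with 2 mM IBMX and 0%/0.1% HSA.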
# [2] = test system: rat CRF2R α receptor; experiment: cAMP agonism at rat CRF2R α receptor in A7R5 rat aortic smooth muscle cells (Example 8); assay type: cell-based; details: cAMP HTRF, A7R5 rat aortic smooth muscle cell line, 0% HSA
# Summary of the method: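 Thawed cryopreserved A7R5 cells in HBSS/20 mM HEPES (0 or 0.1% HSA) with 2 mM IBMX, 2000 cells/well, were exposed to compound for 30 min at room temperature. cAMP was read by HTRF (665/620 nm ratio) after 1 h with lysis reagents. Activity was normalised to 1000 nM urocortin 2 as 100%, and EC50 was taken as the concentration giving 50% of maximal activation.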
# [3] = Solubility in buffer systems by UPLC-UV (Example 13); assay type: physicochemical; details: pH 4.5, Solubility in Buffer B [mg/ml]
# Summary of the method: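 The supernatant was diluted 1:10 and quantified by UPLC-UV peak area against a reference standard curve, correcting for sequence-based extinction coefficients.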
# [4] = Physical stability, Thioflavin T fibrillation assay (Example 14); assay type: physicochemical; details: Buffer B: 100 mM acetate buffer, pH 4.5, 2.7 mg/ml m-cresol; 3 mg/ml; 37° C. shaking
# Summary of the method: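 Compounds at 3 mg/ml final in buffer were stressed at 37° C by repeated cycles of 10 s shaking at 960 rpm and 50 s rest. ThT fluorescence was read every 20 minutes in eight replicates, with fluorescence increase and lag time indicating fibrillation tendency.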
# [5] = Physical stability, dynamic light scattering assay (Example 15); assay type: physicochemical; details: Buffer B (100 mM acetate, pH 4.5, 2.7 mg/ml m-cresol)
# Protocol: The physical stability of the compounds was also assessed using a dynamic light scattering assay.
# In the present study, the physical stability of test compounds was assessed by determining the apparent hydrodynamic radius (Rh), the scattering intensity (I) and mass contribution (M) after synthesis (0 weeks) and after storage for 4 weeks at 40° C.
# For each solution of test compound, the hydrodynamic radius Rh and the diffusion constant D (related via the Stokes-Einstein equation) were determined as an average over triplicates. Both parameters were determined at different compound concentrations (e.g., Rh1 and D1: 1 mg/ml and Rh5 and D5: 5 mg/ml, Rh10 and D10: 10 mg/mL) in the same buffer system. The difference of these parameters between low and high peptide concentration is a surrogate for the DLS interaction parameter kD. […] In addition, the hydrodynamic radius Rh and the corresponding Scattering Intensity (%) were determined as an average over duplicates. The target concentration was 300 μM. Therefore, solutions from solid samples were prepared in a buffer system with a concentration of 300 μM compound based on the previously determined % purity.
# DLS measurements were performed on a DynaPro Plate Reader I (Wyatt Technology, Santa Barbara, CA, US) with an 837 nm laser light source at a scattering angle of 150°. The data were collected and processed with Dynamics V 7.8.1.3 or 7.8.2.18 software provided by Wyatt Technology.
# Hydrodynamic radii were determined with non-negatively constrained least squares (NNLS) methods using DYNALS algorithms with regularization fit. […] Samples were tempered over 1 hour at +25° C. and visually inspected before analysis.
# Samples were mixed with the aid of a pipet tip. Measurements were performed in 5 replicates. […] The plate was centrifuged for 2 minutes at 600 rcf. After removing the sealing, the samples were measured at +25° C.
# [6] = molecular target: human corticotropin-releasing factor 2α (CRF2α receptor) (human), Q13324; experiment: cell-based or functional assay
molecule,measurement,setting,value
CC[C@H](C)[C@H](N)C(=O)N[C@H](C(=O)N[C@@H](CC(C)C)C(=O)N[C@@H](CO)C(=O)N[C@@H](CC(C)C)C(=O)N[C@@H](CC(=O)O)C(=O)N[C@@H](C(=O)N1CCC[C@H]1C(=O)N[C@H](C(=O)N[C@@H](CCCCN)C(=O)N[C@@H](CC(C)C)C(=O)N[C@@H](CCCCNC(=O)COCCOCCNC(=O)COCCOCCNC(=O)CC[C@H](NC(=O)CCCCCCCCCCCCCCCCC(=O)O)C(=O)O)C(=O)N[C@@H](CCC(N)=O)C(=O)N[C@H](C(=O)N[C@@H](CC(C)C)C(=O)N[C@@H](CC(C)C)C(=O)N[C@@H](CCC(=O)O)C(=O)N[C@@H](CCC(N)=O)C(=O)N[C@@H](C)C(=O)N[C@@H](CCCNC(=N)N)C(=O)N[C@@H](CCC(N)=O)C(=O)N[C@@H](CCCCN)C(=O)NC(C)(C)C(=O)N[C@@H](CCC(N)=O)C(=O)N[C@@H](CCCNC(=N)N)C(=O)N[C@@H](CCC(=O)O)C(=O)N[C@@H](CCC(N)=O)C(=O)N[C@@H](C)C(=O)N[C@@H](CCC(=O)O)C(=O)N[C@@H](CCCCN)C(=O)N[C@@H](CC(N)=O)C(=O)N[C@@H](CCCCN)C(=O)N[C@@H](CCCNC(=N)N)C(=O)N[C@H](C(=O)N[C@@H](CC(C)C)C(=O)N[C@@H](CCC(=O)O)C(=O)N[C@@H](CCCNC(=N)N)C(=O)N[C@H](C(N)=O)C(C)C)[C@@H](C)CC)[C@@H](C)CC)[C@@H](C)CC)C(C)C)C(C)C [compound 142] (H-IVLSLD[dV]PIKLK([AEEA-AEEA-γGlu-C18 diacid])QILLEQARQK[Aib]QREQAEKNKRILERV-NH2; N-terminus assumed),EC50,"[1]; 0% HSA, read-out: EC50 [nM], 0% HSA",0.05 nM
same,EC50,"[1]; 0.1% HSA, read-out: EC50 [nM], 0.1% HSA",1.42 nM
same,EC50,[2],0.2 nM
same,solubility at 1 h,[3],> 8700 µg/mL
same,Increase in FI (fluorescence intensity),[4],No
same,Lag time,[4],>45 h
same,Apparent Rh [nm] 0 weeks,[5]; 0 weeks,3.63 ± 0.14 nm
same,Scattering Intensity (I) [%] 0 weeks,[5]; 0 weeks,100 ± 0%
same,Apparent Rh [nm] 4 weeks,[5]; 4 weeks at 40° C.,3.59 ± 0.04 nm
same,Scattering Intensity (I) [%] 4 weeks,[5]; 4 weeks at 40° C.,100 ± 0%
IVLSLD[dV]PIKLK([AEEA-AEEA-γGlu-Palmitoyl])QILLKQERQK[Aib]QREQAEKNKQILAQV-NH2 (N-terminus assumed; SMILES CCCCCCCCCCCCCCCC(=O)N[C@@H](CCC(=O)NCCOCCOCC(=O)NCCOCCOCC(=O)NCCCC[C@H](NC(=O)[C@H](CC(C)C)NC(=O)[C@H](CCCCN)NC(=O)[C@@H](NC(=O)[C@@H]1CCCN1C(=O)[C@H](NC(=O)[C@H](CC(=O)O)NC(=O)[C@H](CC(C)C)NC(=O)[C@H](CO)NC(=O)[C@H](CC(C)C)NC(=O)[C@@H](NC(=O)[C@@H](N)[C@@H](C)CC)C(C)C)C(C)C)[C@@H](C)CC)C(=O)N[C@@H](CCC(N)=O)C(=O)N[C@H](C(=O)N[C@@H](CC(C)C)C(=O)N[C@@H](CC(C)C)C(=O)N[C@@H](CCCCN)C(=O)N[C@@H](CCC(N)=O)C(=O)N[C@@H](CCC(=O)O)C(=O)N[C@@H](CCCNC(=N)N)C(=O)N[C@@H](CCC(N)=O)C(=O)N[C@@H](CCCCN)C(=O)NC(C)(C)C(=O)N[C@@H](CCC(N)=O)C(=O)N[C@@H](CCCNC(=N)N)C(=O)N[C@@H](CCC(=O)O)C(=O)N[C@@H](CCC(N)=O)C(=O)N[C@@H](C)C(=O)N[C@@H](CCC(=O)O)C(=O)N[C@@H](CCCCN)C(=O)N[C@@H](CC(N)=O)C(=O)N[C@@H](CCCCN)C(=O)N[C@@H](CCC(N)=O)C(=O)N[C@H](C(=O)N[C@@H](CC(C)C)C(=O)N[C@@H](C)C(=O)N[C@@H](CCC(N)=O)C(=O)N[C@H](C(N)=O)C(C)C)[C@@H](C)CC)[C@@H](C)CC)C(=O)O) [peptide of SEQ ID NO: 205],"EC50 [nM], 0% HSA (cAMP, HTRF)",[6],0.32 nM
IVLSLD[dV]PIKLK([AEEA-AEEA-γGlu-γGlu-Palmitoyl])QILLKQERQK[Aib]QREQAEKNKQILAQV-NH2 (N-terminus assumed; SMILES CCCCCCCCCCCCCCCC(=O)N[C@@H](CCC(=O)N[C@@H](CCC(=O)NCCOCCOCC(=O)NCCOCCOCC(=O)NCCCC[C@H](NC(=O)[C@H](CC(C)C)NC(=O)[C@H](CCCCN)NC(=O)[C@@H](NC(=O)[C@@H]1CCCN1C(=O)[C@H](NC(=O)[C@H](CC(=O)O)NC(=O)[C@H](CC(C)C)NC(=O)[C@H](CO)NC(=O)[C@H](CC(C)C)NC(=O)[C@@H](NC(=O)[C@@H](N)[C@@H](C)CC)C(C)C)C(C)C)[C@@H](C)CC)C(=O)N[C@@H](CCC(N)=O)C(=O)N[C@H](C(=O)N[C@@H](CC(C)C)C(=O)N[C@@H](CC(C)C)C(=O)N[C@@H](CCCCN)C(=O)N[C@@H](CCC(N)=O)C(=O)N[C@@H](CCC(=O)O)C(=O)N[C@@H](CCCNC(=N)N)C(=O)N[C@@H](CCC(N)=O)C(=O)N[C@@H](CCCCN)C(=O)NC(C)(C)C(=O)N[C@@H](CCC(N)=O)C(=O)N[C@@H](CCCNC(=N)N)C(=O)N[C@@H](CCC(=O)O)C(=O)N[C@@H](CCC(N)=O)C(=O)N[C@@H](C)C(=O)N[C@@H](CCC(=O)O)C(=O)N[C@@H](CCCCN)C(=O)N[C@@H](CC(N)=O)C(=O)N[C@@H](CCCCN)C(=O)N[C@@H](CCC(N)=O)C(=O)N[C@H](C(=O)N[C@@H](CC(C)C)C(=O)N[C@@H](C)C(=O)N[C@@H](CCC(N)=O)C(=O)N[C@H](C(N)=O)C(C)C)[C@@H](C)CC)[C@@H](C)CC)C(=O)O)C(=O)O) [peptide of SEQ ID NO: 206],"EC50 [nM], 0% HSA (cAMP, HTRF)",[6],0.09 nM
IVLSLD[dV]PIKLK([AEEA-AEEA-γGlu-Palmitoyl])QILLKQERQKK[Aib]RQKAEKNKQILAQV-NH2 (N-terminus assumed; SMILES CCCCCCCCCCCCCCCC(=O)N[C@@H](CCC(=O)NCCOCCOCC(=O)NCCOCCOCC(=O)NCCCC[C@H](NC(=O)[C@H](CC(C)C)NC(=O)[C@H](CCCCN)NC(=O)[C@@H](NC(=O)[C@@H]1CCCN1C(=O)[C@H](NC(=O)[C@H](CC(=O)O)NC(=O)[C@H](CC(C)C)NC(=O)[C@H](CO)NC(=O)[C@H](CC(C)C)NC(=O)[C@@H](NC(=O)[C@@H](N)[C@@H](C)CC)C(C)C)C(C)C)[C@@H](C)CC)C(=O)N[C@@H](CCC(N)=O)C(=O)N[C@H](C(=O)N[C@@H](CC(C)C)C(=O)N[C@@H](CC(C)C)C(=O)N[C@@H](CCCCN)C(=O)N[C@@H](CCC(N)=O)C(=O)N[C@@H](CCC(=O)O)C(=O)N[C@@H](CCCNC(=N)N)C(=O)N[C@@H](CCC(N)=O)C(=O)N[C@@H](CCCCN)C(=O)N[C@@H](CCCCN)C(=O)NC(C)(C)C(=O)N[C@@H](CCCNC(=N)N)C(=O)N[C@@H](CCC(N)=O)C(=O)N[C@@H](CCCCN)C(=O)N[C@@H](C)C(=O)N[C@@H](CCC(=O)O)C(=O)N[C@@H](CCCCN)C(=O)N[C@@H](CC(N)=O)C(=O)N[C@@H](CCCCN)C(=O)N[C@@H](CCC(N)=O)C(=O)N[C@H](C(=O)N[C@@H](CC(C)C)C(=O)N[C@@H](C)C(=O)N[C@@H](CCC(N)=O)C(=O)N[C@H](C(N)=O)C(C)C)[C@@H](C)CC)[C@@H](C)CC)C(=O)O) [peptide of SEQ ID NO: 210],"EC50 [nM], 0% HSA (cAMP, HTRF)",[6],2.98 nM

# Reference: patent US12679878B2, “CRF2 receptor agonists and their use in therapy” (SANOFI, priority 2020, dated 2026)
